# Source: patent US20090105149A1, “Compounds comprising lpa” (ENKAM PHARMACEUTICALS A/S, priority 2003, published 2009)
# Marks after values point to notes of the source that are not given here.
# How the values were obtained:
# hippocampal neurons [1] = experiment: Survival of hippocampal neurons exposed to Aβ25-35; assay type: cell-based, rat; conditions: for Neuronal Survival (% of Control): β-amyloid, Hippocampal (E19)
# Protocol: For the experiments dissociated hippocampal neurons were isolated from Wistar rat embryos at embryonic day 19 or newborn rats as described by Rønn et al. (1999) Nat. Biotechnol. 17:1000-5.
# Briefly, hippocampus was isolated from the brain in ice cold modified Krebs Ringer solution, cleared of blood vessels, roughly homogenised by chopping and then trypsinised. The dissociated cells were washed in the presence of DNAse 1 and soybean trypsin inhibitor.
# For the assay neurons were plated at a density of 40,000 cells/cm^2 on 8-well permanox slides coated with 10 μg/ml poly-L-lysine in Neurobasal medium. 15 minutes after plating, Aβ25-35 was added to a final concentration of 20 μM. The Aβ25-35 had prior to plating been dissolved in sterile deionized water to a concentration of 3 mM and incubated at 37° C. for four days according to Pigino et al. (2001) J. Neurosci. 21:834-42. This treatment induces fibrillation of the Aβ-peptide fragment, thereby increasing its neurotoxic activity. The neurons were incubated with Neurobasal medium containing the FGL peptide for 70 hours, fixed with 4% (v/v) formaldehyde, and stained with Hoechst 33258 for 25 minutes as described by Kruman et al. (1997). Images of 1000-1500 neurons were randomly recorded for each group in each experiment using computer assisted fluorescence microscopy as described for the hippocampal neurite outgrowth assay. Nuclei from dead and live neurons were counted using the software package Prima developed at the Protein Laborator, Copenhagen University, and the fraction of live neurons relative to the total number of neurons was estimated.
# dopaminergic neurons = experiment: Neurite outgrowth, dopaminergic neurons; assay type: cell-based, rat; conditions: 72 h; for Effect on Neurite Length (Percent Increase vs. Control): DN E14
# Protocol: The cultures were subsequently immunostained for tyrosine hydroxylase. Hippocampal neurons and CGN were plated at a density of 10,000 cells/cm^2 on 8-well permanox chamber slides and incubated for 24 hours in the presence of various concentrations of FGLd. Subsequently the neurons were immunostained for GAP-43. Results from at least five independent experiments for each neuronal culture are shown as percentage ±SEM with the untreated controls set at 100%. *p<0.05, **p<0.01, ***p<0.001 when compared to the controls.
# After 72 hours of incubation, the neurons were fixed with 4% (v/v) formaldehyde and immunostained using a primary mouse monoclonal antibody against tyrosine hydroxylase and secondary biotinylated sheep anti-mouse antibodies followed by incubation with peroxidase conjugated streptavidin. 98 images for each experimental condition in each individual experiment were automatically recorded using a computerised microscope workstation described by Walmod et al. (2002) Toxicol Appl Pharmacol. 181:1-15. Briefly, the workstation consisted of an Eclipse TE 300 inverted microscope (Nikon, Tokyo, Japan) equipped with a motorised, movable microscope stage (LUDL Electronic Production Ltd, Hawthorne, N.Y., USA), a 10× objective and a 1100 analogue b/w CCD video camera (DFA, Denmark). A software package Prima developed at the Protein Laboratory (Copenhagen University, Denmark) was used to make a stereologically based determination of neurite length according to Rønn et al., (2000) J Neurosci Methods. 100:25-32).
# hippocampal neurons [2] = experiment: Synapse formation, synaptophysin/GAP-43 double-immunostaining; assay type: cell-based, rat
# Protocol: The effect of FGLd on synapse formation was further evaluated using double-immunostaining of neurites and synapses in primary embryonic (E19) hippocampal neurons grown in culture for 13 days. Cells were incubated with FGLd for 48 or 96 hours, before fixation and immunostaining. The synapses were detected by antibodies against synaptophysin and the neyrites were labelled by antibodies against the growth-associated protein-43 (GAP-43—also called B-50 or F1). The immunostaining was visualised and quantified by confocal fluorescence microscopy as described by Rønn et al. (2000) (op. cit.).
# [3] = tested on: dissociated hippocampal neurons; experiment: OGD, FM 1-43 release in dissociated hippocampal cell cultures; assay type: cell-based, rat
# Excerpt: In the present study it was investigated the effect of the FGL peptide on synaptic plasticity, neuronal function and vulnerability following oxygen and glucose deprivation (OGD) in organotypic hippocampal neuronal slice cultures (OHSC) from 7-day-old Wistar rats according to method of Stoppini et al. (1991) Neurosci Methods. 37:173-82 and primary cultures of dissociated hippocampal neurons from 1-day-old rats according to method of Maar et al. (1997) J Neurosci Res. 47:163-72. Primary cell cultures were maintained for 11-12 days and OHSC for 12-14 days prior to adding FGLd.
# The primary cell cultures and OHSC were exposed to OGD for 10 and 20 minutes. Following OGD, the cultures were again supplied with oxygen and glucose and analysed at 1, 4 or 24 hour time point after introduction of OGD exposure. FGLd (or the control peptide FGLc) was added 24 hr before, immediately, or 1 hr or 24 hr after OGD. When administered prior to OGD, FGLd was removed from the medium when introducing OGD. In some cases, the slice cultures were treated with FGLd only at 4 hr after OGD. In addition, the FGFR inhibitor, SU5402 (25 μM), was added together with FGLd in some of the set-ups.
# In hippocampal neuronal cultures, FM 1-43 staining was used to evaluate pre-synaptic function (described above). Cell viability in both primary cell cultures and OHSC was measured using the […] [3-(4,5-dimethylthiazol-2-yl)-2,5-diphenyltetrazolium bromide] assay according to Malich et al, (1997) Toxicology. 124:179-92. In, addition, cell viability in OHSC was measured using propidium iodide (PI) staining according to Laake et al. (1999) Brain Res Brain Res Protoc. 4:173-84.
# rats = experiment: Open Field test in normal rats; assay type: in vivo, rat; conditions: additional experiments
substance,measurement,setting,value
FGLd: MAP-type dendrimer of FGL; dendrimeric tetramer of the FGL peptide (EVYVVAENQQGKSKA),"neuroprotection of hippocampal neurons, maximal level","hippocampal neurons [1]; at 0.3 μg/ml, 20 μM Aβ25-35, Aβ25-35-treated controls = 100%",110%
same,Neuronal Survival (% of Control),hippocampal neurons [1]; 0.01 μg/mL,109%** % of Control
same,Neuronal Survival (% of Control),hippocampal neurons [1]; 3 μg/mL,107%** % of Control
same,Neuronal Survival (% of Control),hippocampal neurons [1]; 9 μg/mL,107%** % of Control
same,Effect on Neurite Length (Percent Increase vs. Control),dopaminergic neurons; 0.04 μg/mL,12%
same,Effect on Neurite Length (Percent Increase vs. Control),dopaminergic neurons; 0.2 μg/mL,23%
same,Effect on Neurite Length (Percent Increase vs. Control),dopaminergic neurons; 1 μg/mL,24%
same,Effect on Neurite Length (Percent Increase vs. Control),dopaminergic neurons; 5 μg/mL,13%
same,"maximal average neurite length, dopaminergic neurons","dopaminergic neurons; at 1 μg/ml, untreated control = 100%",125%
same,increase in the number of synaptophysin positive spots per 100 μm length of neurite,hippocampal neurons [2]; 20 μg/ml for 48 and 96 hours,approximately 20%
same,number of synaptophysin positive spots per 100 μm length of neurite,"hippocampal neurons [2]; 20 μg/ml for 48 hours, control 2.40",2.96
same,number of synaptophysin positive spots per 100 μm length of neurite,"hippocampal neurons [2]; 20 μg/ml for 96 hours, control 2.73",3.24
same,rate of FM 1-43 release after OGD,[3]; treated 24 hours before or immediately after OGD,the OGD-induced decrease in the rate of FM 1-43 release was diminished
same,rate of pre-synaptic vesicle release (FM 1-43 destaining) upon high potassium stimulation,"[3]; treatment without OGD, control 0.04",0.06 s⁻¹
same,emotional or locomotor behaviour,rats,did not influence emotional or locomotor behaviour
